Reference: patent US6703372B1, “Macrolides” (Biochemie S.A., priority 1999, dated 2004)
Where two headings read alike, the source gives them in different places.

What was measured:
[1] = stability of the crystalline structure (X-ray powder diffraction pattern) under normal air humidity conditions; format: physicochemical; conditions: kept for several weeks under normal air humidity conditions
Protocol: “Stable monohydrate” as used herein includes a compound of formula I in the form of a monohydrate which is crystalline and which maintains its crystalline structure for at least 24 hours, e.g. for several weeks, under normal, e.g. normal air humidity, conditions. The crystalline structure of azithromycin in the form of a monohydrate may be determined by its (known) X-ray powder diffraction pattern. The X-ray powder diffraction pattern and the IR spectrum of azithromycin in the form of a monohydrate obtained according to the following examples corresponding to that of known (unstable) azithromycin in the form of a monohydrate.

[2] = normal air humidity conditions, within some hours, stated as known, cited from earlier work

Compound | crystallinity and X-ray powder diffraction pattern on storage [1] | stability of the crystal structure ([2]; listed as azithromycin in the form of a monohydrate) | stability of the crystal structure [2]
CC[C@H]1OC(=O)[C@H](C)[C@@H](O[C@H]2C[C@@](C)(OC)[C@@H](O)[C@H](C)O2)[C@H](C)[C@@H](O[C@@H]2O[C@H](C)C[C@H](N(C)C)[C@H]2O)[C@](C)(O)C[C@@H](C)CN(C)[C@H](C)[C@@H](O)[C@]1(C)O [9-deoxo-9a-aza-9a-methyl-9a-homoerythromycin A] | maintains its crystallinity and its X-ray powder diffraction pattern | unstable | 
CC[C@H]1OC(=O)[C@H](C)[C@@H](O[C@H]2C[C@@](C)(OC)[C@@H](O)[C@H](C)O2)[C@H](C)[C@@H](O[C@@H]2O[C@H](C)C[C@H](N(C)C)[C@H]2O)[C@](C)(O)C[C@@H](C)CN(C)[C@H](C)[C@@H](O)[C@]1(C)O [azithromycin in the form of a dihydrate, 9-deoxo-9a-aza-9a-methyl-9a-homoerythromycin A, reference compound] |  |  | not to break down within some hours
